Results: PMC7392676 (BMC Microbiology, 2020)

Experiments:
Xf = settings: cited from earlier work
Xff strain Temecula = format: cell-based, Xylella fastidiosa subsp. fastidiosa
[1] = tested on: Xanthomonas axonopodis pv. vesicatoria; settings: cited from earlier work
[2] = tested on: Pseudomonas syringae pv. syringae; settings: cited from earlier work
Erwinia amylovora = settings: cited from earlier work

gomesin
MIC or MBC against Xf (Xf): 4.5 to 9 µg/mL

dermaseptin
MIC or MBC against Xf (Xf): 8 to 32 µg/mL

magainin II
MIC or MBC against Xf (Xf): 8 to 64 µg/mL

KDWEHLKDWEHLKDWEHL-OH [tag54]
Log N0/N (log reduction of Xff cell viability) (Xff strain Temecula): 0 ± 0 log
antimicrobial activity against Xff cells (in words) (Xff strain Temecula): did not show antimicrobial activity
MIC Xav [1]: > 100 µM
MIC Psa [2]: > 100 µM
MIC Ea (Erwinia amylovora): > 100 µM
